Data from PubChem BioAssay (NCI).
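Cultured in 96-well plates, cells were exposed to test compound for 48 hours across five concentrations. TGI marks complete inhibition of growth.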

What was measured:
Test in all cases: inhibition of tumour cell growth, NCI panel, 48 h
HOP-92 NSCLC = tested on: HOP-92 NSCLC
SR leukemia = tested on: SR leukemia
UACC-257 melanoma = tested on: UACC-257 melanoma
RXF 393 renal = tested on: RXF 393 renal
A549 NSCLC = tested on: A549 NSCLC
U251 CNS = tested on: U251 CNS
HT29 colon = tested on: HT29 colon
DU-145 prostate = tested on: DU-145 prostate
BT-549 breast = tested on: BT-549 breast
SF-268 CNS = tested on: SF-268 CNS
SNB-75 CNS = tested on: SNB-75 CNS
SK-MEL-5 melanoma = tested on: SK-MEL-5 melanoma
OVCAR-8 ovarian = tested on: OVCAR-8 ovarian
OVCAR-4 ovarian = tested on: OVCAR-4 ovarian
RPMI-8226 leukemia = tested on: RPMI-8226 leukemia
786-0 renal = tested on: 786-0 renal

Question: For `CSc1n[nH]c2n[nH]c(C)c12`, which TGI (HOP-92 NSCLC) is on record?
Answer: > 100 µM

Question: What about the TGI (SR leukemia) of the same molecule?
Answer: > 100 µM

Question: And the TGI (UACC-257 melanoma)?
Answer: > 100 µM

Question: And the TGI (RXF 393 renal)?
Answer: > 100 µM

Question: And the TGI (A549 NSCLC)?
Answer: > 100 µM

Question: And the TGI (U251 CNS)?
Answer: > 100 µM

Question: What about the TGI (HT29 colon) of the same molecule?
Answer: > 100 µM

Question: What about the TGI (DU-145 prostate) of the same molecule?
Answer: > 100 µM

Question: And the TGI (BT-549 breast)?
Answer: > 100 µM

Question: What about the TGI (SF-268 CNS) of the same molecule?
Answer: > 100 µM

Question: What about the TGI (SNB-75 CNS) of the same molecule?
Answer: > 100 µM

Question: And the TGI (SK-MEL-5 melanoma)?
Answer: > 100 µM

Question: What about the TGI (OVCAR-8 ovarian) of the same molecule?
Answer: > 100 µM

Question: What about the TGI (OVCAR-4 ovarian) of the same molecule?
Answer: > 100 µM

Question: What about the TGI (RPMI-8226 leukemia) of the same molecule?
Answer: > 100 µM

Question: What about the TGI (786-0 renal) of the same molecule?
Answer: > 100 µM

Question: How did the TGI (HOP-92 NSCLC) turn out when `Cc1ccc(C2SC(N)=Nc3c2c(C)nn3C(=O)c2ccc(Cl)cc2)cc1` (centres undefined) was run?
Answer: > 10 µM

Question: What about the TGI (SR leukemia) of the same molecule?
Answer: > 10 µM

Question: What about the TGI (UACC-257 melanoma) of the same molecule?
Answer: > 10 µM

Question: And the TGI (RXF 393 renal)?
Answer: > 10 µM

Question: And the TGI (A549 NSCLC)?
Answer: > 10 µM

Question: And the TGI (U251 CNS)?
Answer: > 10 µM

Question: What about the TGI (HT29 colon) of the same molecule?
Answer: > 10 µM

Question: What about the TGI (DU-145 prostate) of the same molecule?
Answer: > 10 µM

Question: And the TGI (BT-549 breast)?
Answer: > 10 µM

Question: What about the TGI (SF-268 CNS) of the same molecule?
Answer: > 10 µM

Question: What about the TGI (SNB-75 CNS) of the same molecule?
Answer: > 10 µM

Question: What about the TGI (SK-MEL-5 melanoma) of the same molecule?
Answer: > 10 µM

Question: What about the TGI (OVCAR-8 ovarian) of the same molecule?
Answer: > 10 µM

Question: And the TGI (OVCAR-4 ovarian)?
Answer: > 10 µM

Question: What about the TGI (RPMI-8226 leukemia) of the same molecule?
Answer: > 10 µM

Question: What about the TGI (786-0 renal) of the same molecule?
Answer: > 10 µM

Question: What does the source list for `COC(=O)CCSC1=CC(=O)c2nc3ccccc3c3ccnc1c23`?
Answer: TGI (HOP-92 NSCLC): > 55.4 µM; TGI (SR leukemia): > 51.5 µM; TGI (UACC-257 melanoma): 33 µM; TGI (RXF 393 renal): 37.1 µM; TGI (A549 NSCLC): > 100 µM; TGI (U251 CNS): > 100 µM; TGI (HT29 colon): 34.1 µM; TGI (DU-145 prostate): 48.1 µM; TGI (BT-549 breast): 33 µM; TGI (SF-268 CNS): 34.3 µM; TGI (SNB-75 CNS): > 100 µM; TGI (SK-MEL-5 melanoma): > 53.5 µM; TGI (OVCAR-8 ovarian): > 56.3 µM; TGI (OVCAR-4 ovarian): 41.9 µM; TGI (RPMI-8226 leukemia): > 100 µM; TGI (786-0 renal): 40.2 µM

Question: For `COC(=O)c1c2c(cc3c1CC1(C3)Cc3ccc4c(c3C1=O)CCC4)CCC2` (centres undefined), which TGI (HOP-92 NSCLC) is on record?
Answer: > 70.6 µM

Question: What about the TGI (SR leukemia) of the same molecule?
Answer: > 21.9 µM

Question: What about the TGI (UACC-257 melanoma) of the same molecule?
Answer: > 100 µM

Question: And the TGI (RXF 393 renal)?
Answer: 3.14 µM

Question: And the TGI (A549 NSCLC)?
Answer: > 100 µM

Question: And the TGI (U251 CNS)?
Answer: > 94.3 µM

Question: What about the TGI (HT29 colon) of the same molecule?
Answer: 8.45 µM

Question: What about the TGI (DU-145 prostate) of the same molecule?
Answer: > 100 µM

Question: What about the TGI (BT-549 breast) of the same molecule?
Answer: > 42.9 µM

Question: And the TGI (SF-268 CNS)?
Answer: > 100 µM

Question: What about the TGI (SNB-75 CNS) of the same molecule?
Answer: > 25.9 µM

Question: What about the TGI (SK-MEL-5 melanoma) of the same molecule?
Answer: 20.4 µM

Question: What about the TGI (OVCAR-8 ovarian) of the same molecule?
Answer: > 82 µM

Question: What about the TGI (OVCAR-4 ovarian) of the same molecule?
Answer: > 92 µM

Question: And the TGI (RPMI-8226 leukemia)?
Answer: > 72.6 µM

Question: And the TGI (786-0 renal)?
Answer: > 56.1 µM

Question: What does the source list for `O=c1c2ccccc2n2n1Cc1ccccc1C2`?
Answer: TGI (HOP-92 NSCLC): > 100 µM; TGI (SR leukemia): > 100 µM; TGI (UACC-257 melanoma): > 100 µM; TGI (RXF 393 renal): > 100 µM; TGI (A549 NSCLC): > 100 µM; TGI (U251 CNS): > 100 µM; TGI (HT29 colon): > 100 µM; TGI (DU-145 prostate): > 100 µM; TGI (BT-549 breast): > 100 µM; TGI (SF-268 CNS): > 100 µM; TGI (SNB-75 CNS): > 100 µM; TGI (SK-MEL-5 melanoma): > 100 µM; TGI (OVCAR-8 ovarian): > 100 µM; TGI (OVCAR-4 ovarian): > 100 µM; TGI (RPMI-8226 leukemia): > 100 µM; TGI (786-0 renal): > 100 µM

Question: Which results are given for `NN/C(=N\S(=O)(=O)c1cccc2nsnc12)Nc1ccc(Cl)cc1`?
Answer: TGI (HOP-92 NSCLC): > 100 µM; TGI (SR leukemia): > 100 µM; TGI (UACC-257 melanoma): > 100 µM; TGI (RXF 393 renal): > 100 µM; TGI (A549 NSCLC): > 100 µM; TGI (U251 CNS): > 100 µM; TGI (HT29 colon): > 100 µM; TGI (DU-145 prostate): > 100 µM; TGI (BT-549 breast): > 100 µM; TGI (SF-268 CNS): > 100 µM; TGI (SNB-75 CNS): > 100 µM; TGI (SK-MEL-5 melanoma): > 100 µM; TGI (OVCAR-8 ovarian): > 100 µM; TGI (OVCAR-4 ovarian): > 100 µM; TGI (RPMI-8226 leukemia): > 100 µM; TGI (786-0 renal): > 100 µM

Question: With `O=c1[nH]cnc2c1ncn2C1SC(CO)C(O)C1O` (centres undefined) as the molecule, how does the TGI (HOP-92 NSCLC) read?
Answer: > 100 µM

Question: And the TGI (SR leukemia)?
Answer: > 100 µM

Question: What about the TGI (UACC-257 melanoma) of the same molecule?
Answer: > 100 µM

Question: And the TGI (RXF 393 renal)?
Answer: > 100 µM

Question: What about the TGI (A549 NSCLC) of the same molecule?
Answer: > 100 µM

Question: And the TGI (U251 CNS)?
Answer: > 100 µM

Question: And the TGI (HT29 colon)?
Answer: > 100 µM

Question: What about the TGI (DU-145 prostate) of the same molecule?
Answer: > 100 µM

Question: What about the TGI (BT-549 breast) of the same molecule?
Answer: > 100 µM

Question: What about the TGI (SF-268 CNS) of the same molecule?
Answer: > 100 µM

Question: What about the TGI (SNB-75 CNS) of the same molecule?
Answer: > 100 µM

Question: What about the TGI (SK-MEL-5 melanoma) of the same molecule?
Answer: > 100 µM

Question: What about the TGI (OVCAR-8 ovarian) of the same molecule?
Answer: > 100 µM

Question: What about the TGI (OVCAR-4 ovarian) of the same molecule?
Answer: > 100 µM

Question: What about the TGI (RPMI-8226 leukemia) of the same molecule?
Answer: > 100 µM

Question: And the TGI (786-0 renal)?
Answer: > 100 µM

Question: For `COCN1C(=O)[C@@H]2CCCN2C(=O)c2cc(Cl)ccc21`, which TGI (HOP-92 NSCLC) is on record?
Answer: > 100 µM

Question: And the TGI (SR leukemia)?
Answer: > 100 µM

Question: And the TGI (UACC-257 melanoma)?
Answer: > 100 µM

Question: What about the TGI (RXF 393 renal) of the same molecule?
Answer: > 100 µM

Question: And the TGI (A549 NSCLC)?
Answer: > 100 µM

Question: What about the TGI (U251 CNS) of the same molecule?
Answer: > 100 µM

Question: What about the TGI (HT29 colon) of the same molecule?
Answer: > 100 µM

Question: And the TGI (DU-145 prostate)?
Answer: > 100 µM

Question: What about the TGI (BT-549 breast) of the same molecule?
Answer: > 100 µM

Question: What about the TGI (SF-268 CNS) of the same molecule?
Answer: > 100 µM

Question: What about the TGI (SNB-75 CNS) of the same molecule?
Answer: > 100 µM

Question: And the TGI (SK-MEL-5 melanoma)?
Answer: > 100 µM

Question: What about the TGI (OVCAR-8 ovarian) of the same molecule?
Answer: > 100 µM

Question: And the TGI (OVCAR-4 ovarian)?
Answer: > 100 µM

Question: And the TGI (RPMI-8226 leukemia)?
Answer: > 100 µM

Question: And the TGI (786-0 renal)?
Answer: > 100 µM

Question: For `C=CCN(c1cc(OCc2ccccc2)c2c(c1)c(C)cn2S(=O)(=O)c1ccccc1)S(C)(=O)=O`, which TGI (HOP-92 NSCLC) is on record?
Answer: > 100 µM

Question: And the TGI (SR leukemia)?
Answer: > 100 µM

Question: And the TGI (UACC-257 melanoma)?
Answer: > 100 µM

Question: And the TGI (RXF 393 renal)?
Answer: > 100 µM

Question: What about the TGI (A549 NSCLC) of the same molecule?
Answer: > 100 µM

Question: What about the TGI (U251 CNS) of the same molecule?
Answer: > 100 µM

Question: What about the TGI (HT29 colon) of the same molecule?
Answer: > 100 µM

Question: And the TGI (DU-145 prostate)?
Answer: > 100 µM

Question: And the TGI (BT-549 breast)?
Answer: > 100 µM

Question: And the TGI (SF-268 CNS)?
Answer: > 100 µM

Question: What about the TGI (SNB-75 CNS) of the same molecule?
Answer: > 100 µM

Question: What about the TGI (SK-MEL-5 melanoma) of the same molecule?
Answer: > 100 µM

Question: And the TGI (OVCAR-8 ovarian)?
Answer: > 100 µM

Question: And the TGI (OVCAR-4 ovarian)?
Answer: > 100 µM

Question: And the TGI (RPMI-8226 leukemia)?
Answer: > 100 µM

Question: What about the TGI (786-0 renal) of the same molecule?
Answer: > 100 µM
